According to paper PMC7181660, “A novel specific PERK activator reduces toxicity and extends survival in Huntington's disease models” (Scientific Reports, 2020):
Like-named read-outs stand apart in the source and are kept apart here.

Columns and labels:
Experiment in all cases: biochemical
Format in all cases: biochemical
panel of 391 kinases [1] = target: panel of 391 kinases (Homo sapiens, UniProt Q8IYT8); details: ULK2, MK-28 1 µM, ATP 1 µM
panel of 391 kinases [2] = target: panel of 391 kinases (Homo sapiens, UniProt P00533); details: EGFR, MK-28 1 µM, ATP 1 µM
panel of 391 kinases [3] = target: panel of 391 kinases (Homo sapiens, UniProt P05129); details: PKCg, MK-28 1 µM, ATP 1 µM
panel of 391 kinases [4] = target: panel of 391 kinases (Homo sapiens, UniProt Q02779); details: MLK2/MAP3K10, MK-28 1 µM, ATP 1 µM
panel of 391 kinases [5] = target: panel of 391 kinases (Homo sapiens, UniProt P46734); details: MEK3, MK-28 1 µM, ATP 1 µM
panel of 391 kinases [6] = target: panel of 391 kinases (Homo sapiens, UniProt P07948); details: LYN, MK-28 1 µM, ATP 1 µM
panel of 391 kinases [7] = target: panel of 391 kinases (Homo sapiens, UniProt O15075); details: DCAMKL1, MK-28 1 µM, ATP 1 µM
panel of 391 kinases [8] = target: panel of 391 kinases (Homo sapiens, UniProt Q13153); details: PAK1, MK-28 1 µM, ATP 1 µM
panel of 391 kinases [9] = target: panel of 391 kinases (Homo sapiens, UniProt O43293); details: kinase ZIPK/DAPK3, compound at 1 µM, single dose in duplicates, 1 µM ATP
panel of 391 kinases [10] = target: panel of 391 kinases (Homo sapiens, UniProt Q09013); details: DMPK, MK-28 1 µM, ATP 1 µM
panel of 391 kinases [11] = target: T1, panel of 391 kinases (Homo sapiens, UniProt Q9NR20); details: DYRK4, MK-28 1 µM, ATP 1 µM
T1 sequence (Q9NR20 1-520): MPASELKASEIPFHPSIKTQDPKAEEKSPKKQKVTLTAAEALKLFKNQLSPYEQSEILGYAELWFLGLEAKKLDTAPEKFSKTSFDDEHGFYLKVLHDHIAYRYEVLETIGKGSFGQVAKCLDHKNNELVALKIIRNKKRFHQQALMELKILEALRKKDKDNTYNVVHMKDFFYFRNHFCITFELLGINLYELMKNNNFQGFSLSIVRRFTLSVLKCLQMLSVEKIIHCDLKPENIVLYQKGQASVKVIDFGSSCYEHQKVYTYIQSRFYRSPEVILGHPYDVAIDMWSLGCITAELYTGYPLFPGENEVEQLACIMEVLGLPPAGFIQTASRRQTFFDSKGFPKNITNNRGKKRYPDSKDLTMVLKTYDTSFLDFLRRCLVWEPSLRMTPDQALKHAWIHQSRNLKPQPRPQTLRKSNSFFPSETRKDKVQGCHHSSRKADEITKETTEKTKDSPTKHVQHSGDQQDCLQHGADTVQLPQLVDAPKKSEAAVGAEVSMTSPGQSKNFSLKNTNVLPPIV

panel of 391 kinases [12] = target: panel of 391 kinases (Homo sapiens, UniProt Q8IVT5); details: KSR1, MK-28 1 µM, ATP 1 µM
panel of 391 kinases [13] = target: panel of 391 kinases (Homo sapiens, UniProt Q6XUX3); details: RIPK5, MK-28 1 µM, ATP 1 µM
panel of 391 kinases [14] = target: panel of 391 kinases (Homo sapiens, UniProt Q76MJ5); details: ERN2/IRE2, MK-28 1 µM, ATP 1 µM
panel of 391 kinases [15] = target: panel of 391 kinases (Homo sapiens, UniProt Q9H792); details: PEAK1, MK-28 1 µM, ATP 1 µM
panel of 391 kinases [16] = target: panel of 391 kinases (Homo sapiens, UniProt P11802); details: MK-28 1 µM, ATP 1 µM; for remaining activity at 1 µM: read-out: % Enzyme Activity (relative to DMSO controls)
panel of 391 kinases [17] = target: panel of 391 kinases (Homo sapiens, UniProt Q6VAB6); details: KSR2, MK-28 1 µM, ATP 1 µM
panel of 391 kinases [18] = target: panel of 391 kinases (Homo sapiens, UniProt Q96PN8); details: TSSK3/STK22C, MK-28 1 µM, ATP 1 µM
panel of 391 kinases [19] = target: panel of 391 kinases (Homo sapiens, UniProt Q13557); details: CAMK2d, MK-28 1 µM, ATP 1 µM
panel of 391 kinases [20] = target: panel of 391 kinases (Homo sapiens, UniProt P48730); details: CK1d, MK-28 1 µM, ATP 1 µM
panel of 391 kinases [21] = target: panel of 391 kinases (Homo sapiens, UniProt O96017); details: CHK2, MK-28 1 µM, ATP 1 µM
panel of 391 kinases [22] = target: panel of 391 kinases (Homo sapiens, UniProt P51817); details: PRKX, MK-28 1 µM, ATP 1 µM
[23] = read-out: % Enzyme Activity (relative to DMSO controls)

CN(/N=C\c1ccc(O)c(O)c1)c1nc(-c2ccccc2)cc(-c2ccccc2)n1 [MK-28]
% Enzyme Activity (relative to DMSO controls) (panel of 391 kinases [1]): 98.62% | remaining activity at 1 µM (panel of 391 kinases [1]; [23]): 102% | % Enzyme Activity (relative to DMSO controls) (panel of 391 kinases [2]): 102.64% | remaining activity at 1 µM (panel of 391 kinases [2]; [23]): 104% | % Enzyme Activity (relative to DMSO controls) (panel of 391 kinases [3]): 101.88% | remaining activity at 1 µM (panel of 391 kinases [3]; [23]): 104% | % Enzyme Activity (relative to DMSO controls) (panel of 391 kinases [4]): 95.47% | remaining activity at 1 µM (panel of 391 kinases [4]; [23]): 100% | % Enzyme Activity (relative to DMSO controls) (panel of 391 kinases [5]): 88.71% | remaining activity at 1 µM (panel of 391 kinases [5]; [23]): 96.2% | % Enzyme Activity (relative to DMSO controls) (panel of 391 kinases [6]): 96.29% | remaining activity at 1 µM (panel of 391 kinases [6]; [23]): 96.5% | % Enzyme Activity (relative to DMSO controls) (panel of 391 kinases [7]): 110.18% | remaining activity at 1 µM (panel of 391 kinases [7]; [23]): 111% | % Enzyme Activity (relative to DMSO controls) (panel of 391 kinases [8]): 100.75% | remaining activity at 1 µM (panel of 391 kinases [8]; [23]): 102% | % Enzyme Activity (relative to DMSO controls) (panel of 391 kinases [9]): 79.41% | remaining activity at 1 µM (panel of 391 kinases [9]; [23]): 79.9% | % Enzyme Activity (relative to DMSO controls) (panel of 391 kinases [10]): 103.01% | remaining activity at 1 µM (panel of 391 kinases [10]; [23]): 104% | % Enzyme Activity (relative to DMSO controls) (panel of 391 kinases [11]): 99.42% | remaining activity at 1 µM (panel of 391 kinases [11]; [23]): 101% | % Enzyme Activity (relative to DMSO controls) (panel of 391 kinases [12]): 97.81% | remaining activity at 1 µM (panel of 391 kinases [12]; [23]): 99.7% | % Enzyme Activity (relative to DMSO controls) (panel of 391 kinases [13]): 103.40% | remaining activity at 1 µM (panel of 391 kinases [13]; [23]): 105% | % Enzyme Activity (relative to DMSO controls) (panel of 391 kinases [14]): 97.92% | remaining activity at 1 µM (panel of 391 kinases [14]; [23]): 99.7% | % Enzyme Activity (relative to DMSO controls) (panel of 391 kinases [15]): 87.56% | remaining activity at 1 µM (panel of 391 kinases [15]; [23]): 88.6% | % Enzyme Activity (relative to DMSO controls) (panel of 391 kinases [16]; CDK4/cyclin D1): 95.51% | remaining activity at 1 µM (panel of 391 kinases [16]; CDK4/cyclin D1): 95.6% | % Enzyme Activity (relative to DMSO controls) (panel of 391 kinases [16]; CDK4/cyclin D3): 98.69% | remaining activity at 1 µM (panel of 391 kinases [16]; CDK4/cyclin D3): 100% | % Enzyme Activity (relative to DMSO controls) (panel of 391 kinases [17]): 93.44% | remaining activity at 1 µM (panel of 391 kinases [17]; [23]): 96% | % Enzyme Activity (relative to DMSO controls) (panel of 391 kinases [18]): 86.26% | remaining activity at 1 µM (panel of 391 kinases [18]; [23]): 88% | % Enzyme Activity (relative to DMSO controls) (panel of 391 kinases [19]): 94.06% | remaining activity at 1 µM (panel of 391 kinases [19]; [23]): 94.2% | % Enzyme Activity (relative to DMSO controls) (panel of 391 kinases [20]): 95.42% | remaining activity at 1 µM (panel of 391 kinases [20]; [23]): 99.5% | % Enzyme Activity (relative to DMSO controls) (panel of 391 kinases [21]): 98.51% | remaining activity at 1 µM (panel of 391 kinases [21]; [23]): 101% | % Enzyme Activity (relative to DMSO controls) (panel of 391 kinases [22]): 101.69% | remaining activity at 1 µM (panel of 391 kinases [22]; [23]): 104%
